Test results as given in paper PMC4267740, “Unprecedented Therapeutic Potential with a Combination of A2A/NR2B Receptor Antagonists as Observed in the 6-OHDA Lesioned Rat Model of Parkinson's Disease” (PLoS ONE, 2014).
Entries after “also recorded” stand apart in the source; their conditions may differ.

Tests used:
[1] = system: haloperidol-induced catalepsy; settings: threshold dose of Theophylline; cited from earlier work
[2] = system: unilateral 6-OHDA-lesioned rats; test: Rearing counts in actometers, monotherapy (without L-Dopa); assay type: in vivo, rat
Description: (§1) To protect norepinephrinergic neurons, animals were administered imipramine HCl (Sigma) 15 minutes before surgery. They were subsequently anesthetized with ketamine (Ceva, 75 mg/kg) and xylazine (Bayer, 10 mg/kg) and placed in stereotaxic frame (David Kopf Instrument). 6-OHDA was injected into the right ascending medial forebrain bundle at the following coordinates (in mm) relative to bregma and surface of the dura, AP = −3.5, ML = −1.5, DV = −8.7. Each rat received one injection of 6-OHDA (4 µg/µl) over a period of 5 minutes (0.5 µl/min) for a total of 10 µg per rat. Animals were monitored for 3 weeks to ensure full recovery and habituation to the environment and experimenters.
(§2) On day 21 post surgery, all rats were challenged with a small dose of subcutaneously administered apomorphine (Sigma, 0.05 mg/kg). Rats showing more than 90 contralateral rotations (360°) over a 45-minute recording period were included in the study. […] For each experiment, rats were allocated to the different experimental groups in order to get the same mean level of basal activity measured at the apomorphine challenge amongst the different experimental groups.
(§3) Drug-naïve separate rats were tested individually in clear acrylic chambers (LE8811 IR, Panlab). Locomotion was detected and measured by 16 infrared light-beam sensors located on each side of the enclosure at a height of 3 cm. Sensors were spaced such that the light beams formed a matrix of 15×15 squares over the surface. Activity counts were recorded on a computer and Acti-Track software (Actitrack, Panlab) was used to convert raw data into “distance traveled” and “rearing counts” for analysis as relevant dependent variables.
(§4) Six different combinations of A2A/NR2B antagonists were tested without L-Dopa. For each combination, there were four different procedures: vehicle only; A2A antagonist followed by vehicle; vehicle followed by the NR2B antagonist and A2A antagonist followed by the NR2B antagonist. The drugs, doses and combinations are described in Table 3. After drug administration, rats were placed in actometers (open-field) for monitoring the general level of motor activity (distance traveled and rearing counts).
(§5) Before undertaking the study, each A2A and NR2B antagonist was tested individually. The doses were selected on the basis of preliminary dose-response curves performed separately for each drug and submaximal dose (i.e. response observed is not at its maximal level) of each drug was selected for the combination studies. The two drugs were administered separately via an intraperitoneal (ip) injection with a 2-minute interval between the two drugs. Five minutes after the second injection, animals were placed in the testing cage for behavioural recording. Due to formulation and exposure issues, Tozadenant and Radiprodil had to be administered orally and therefore recording was started 60 minutes post dosing at this corresponds to maximum plasma concentrations. Eight drug-naïve animals were used for each of the four procedures; 32 in total for each combination. All behavioral experiments were conducted between 8.00 AM and 2.00 PM at the latest. Preliminary pharmacokinetic assays investigated the plasma and brain disposition of selected drugs administered alone or in combination (ie. Tozadenant/Radiprodil, and Sch-58261/Co-101244; 3 animals per group). Tozadenant and Radiprodil were measured in samples obtained 60 minutes after single oral administration at 30 mg/kg. Sch-58261 and Co-101244 were measured in samples collected 90 min after single intraperitoneal administration at 3 mg/kg.
(§6) The effects of A2A and NR2B antagonists on the level of motor activity (i.e. distance traveled and rearing counts) were assessed with three-way mixed ANOVA, combining the A2A receptor antagonist (2 levels, vehicle and the A2A drug) and the NR2B antagonist (2 levels, vehicle and the NR2B drug) as between-group factors with the time as within-subjects factor (6 or 9 levels). […]

P-glycoprotein (Pgp) = system: P-glycoprotein (Pgp); parameters: method as in earlier work; settings: ref 62 (Preladenant), 49 (Merck 22); cited from earlier work
A2B = target: A2B; parameters: method as in PMID 21810444, PMID 9933143, PMID 17236762; settings: in vitro binding; rat or human; cited from earlier work
[3] = system: unilateral 6-OHDA-lesioned rats; test: Distance traveled in actometers, monotherapy (without L-Dopa); assay type: in vivo, rat
Description: as §1, §2, §3, §4, §5, §6

[4] = system: unilateral 6-OHDA-lesioned rats; test: L-Dopa-induced contralateral rotations in rotometers, add-on therapy; assay type: in vivo, rat; settings: add-on to L-Dopa 25 mg/kg ip, Preladenant 0.03 mg/kg ip
Description: as §1, §2
The rats tested one week earlier for general activity (actometers) were once again placed in clear acrylic individual chambers (50×45 cm) with the same treatment (drug and dose) than that previously received plus L-Dopa. Eight chambers were placed on a level, clear glass bottom, held by a robust frame, and were subdivided into four individual test cages of 25×22 cm. A removable acrylic plate served as a lid.
Rotational behaviour was recorded using a home-made computerized system. Rats were fixed in a harness and linked to mechanical sensors connected directly to a computer. Each 360° clock-wise or counter clock-wise turn was automatically recorded for up to 120 minutes at the maximum. Throughout the experiments, rats were allocated to individual test cages.
Four different combinations were administered as add-on treatment to a low active dose of L-Dopa (25 mg/kg, ip) without any dopa decarboxylase inhibitor to avoid any additional pharmacokinetic interaction. The doses of the compounds were selected on the basis of preliminary dose-response curves performed separately for each drug. To avoid ceiling effect with L-Dopa, only submaximal doses of each drug were selected for testing (as it was done previously for monotherapy). Eight L-Dopa naïve animals were tested for each of the four pharmacological condition: vehicle and L-Dopa (25 mg/kg); A2A antagonist followed by vehicle and L-Dopa; vehicle followed by NR2B antagonist and L-Dopa; A2A antagonist followed by NR2B and L-Dopa. Due to the dominance of the L-Dopa-effect on the lesioned striatum, the unilateral 6-OHDA-lesioned rats rotated after the drugs administration and behavioral activity was recorded in rotometers (i.e. level of contralateral rotations).
All drugs were administered i.p. 25 minutes before behavioural recording, except for the Tozadenant and Radiprodil combination which was administered orally 60 minutes before behavioural recording. As Radiprodil was administered orally, L-Dopa was given 45 minutes after the Radiprodil injection whereas for the other combinations L-Dopa was given 15 minutes after the NR2B drug. The drugs, the doses and the combinations given in co-administration to L-Dopa are described in Table 4 .
The impact of treatment with A2A or NR2B receptor antagonists, given alone or in combination, on the effect of L-Dopa on contralateral rotations was also analysed with a three-way mixed ANOVA. The ANOVA included the A2A and the NR2B receptor antagonists (both, 2 levels, vehicle and the drug) as between-group factors combined with time (12 levels) as within-subjects factor. […] The ability of the combination to increase and prolong the activity of L-Dopa was also explored. Consequently, drug effects were analyzed for every 10-min time interval. […]

A3 = target: A3; parameters: method as in PMID 21810444, PMID 9933143, PMID 17236762; settings: in vitro binding; rat or human; cited from earlier work
cytochrome P-450 (CYP) = system: cytochrome P-450 (CYP); parameters: method as in earlier work; settings: ref 62 (Preladenant), 49 (Merck 22); cited from earlier work
A1 = target: A1; parameters: method as in PMID 21810444, PMID 9933143, PMID 17236762; settings: in vitro binding; rat or human; cited from earlier work
[5] = system: L-Dopa-induced dyskinesia; parameters: method as in PMID 18759356; settings: randomized double-blind placebo-controlled clinical trial; cited from earlier work
A2A = target: A2A; parameters: method as in PMID 21810444, PMID 9933143, PMID 17236762; settings: in vitro binding; rat or human; cited from earlier work
CYP3A = system: CYP3A; parameters: method as in PMID 18552277; settings: human subjects; cited from earlier work
P-gp = system: P-gp; parameters: method as in PMID 18552277; settings: human subjects; cited from earlier work
PD patients = settings: cited from earlier work
[6] = system: unilaterally 6-OHDA-lesioned rats; parameters: method as in PMID 15081591; settings: rotometer; cited from earlier work
[7] = system: Reserpine-induced akinesia; parameters: method as in PMID 9918703; settings: cited from earlier work
[8] = system: rats with a unilateral lesion of the medial forebrain bundle; settings: cited from earlier work
[9] = Preladenant 0.1 mg/kg ip, Merck 22 0.3 mg/kg ip
[10] = Preladenant 0.1 mg/kg ip, Radiprodil 1 mg/kg ip
[11] = Istradefylline 0.3 mg/kg ip, Co-101244 1 mg/kg ip

C[C@]12N[C@H](Cc3ccccc31)c1ccccc12 [dizocilpine]
Effect of co-administration with Theophylline on haloperidol-induced catalepsy [1]: potentiate the effects of a threshold dose of Theophylline

COCCOc1ccc(N2CCN(CCn3ncc4c3nc(N)n3nc(-c5ccco5)nc43)CC2)cc1 [Preladenant]
Rearing counts, drugs alone vs vehicle, p (Newman-Keuls) [2, 9]: Preladenant p<0.001
Rearing counts, drugs main effect, p (three-way mixed ANOVA) [2, 9]: p<0.001
Rearing counts, drugs × time effect, p (three-way mixed ANOVA) [2, 9]: p<0.001
Rearing counts, drugs alone vs vehicle, p (Newman-Keuls) [2, 10]: Preladenant p<0.001
Rearing counts, drugs main effect, p (three-way mixed ANOVA) [2, 10]: p<0.001
Rearing counts, drugs × time effect, p (three-way mixed ANOVA) [2, 10]: Not significant
In-vitro drug interactions with P-glycoprotein (Pgp) (P-glycoprotein (Pgp)): devoid of in-vitro risks of drug interactions
Ki (A2B): > 1700 nM
Distance traveled, drugs alone vs vehicle, p (Newman-Keuls) [3, 9]: Preladenant: p<0.001
Distance traveled, drugs main effect, p (three-way mixed ANOVA) [3, 9]: p<0.001
Distance traveled, drugs × time effect, p (three-way mixed ANOVA) [3, 9]: Not significant
Distance traveled, drugs alone vs vehicle, p (Newman-Keuls) [3, 10]: Both p<0.05
Distance traveled, drugs main effect, p (three-way mixed ANOVA) [3, 10]: p<0.001
Distance traveled, drugs × time effect, p (three-way mixed ANOVA) [3, 10]: Not significant
Distance traveled, drug alone in comparison to vehicle-treated controls ([3]; drug administered alone): significant increase
Contralateral rotations, drugs alone vs vehicle, p (planned contrasts on each 10-min interval) ([4]; Merck 22 1 mg/kg ip): Not significant
Contralateral rotations, drugs main effect, p (three-way mixed ANOVA) ([4]; Merck 22 1 mg/kg ip): p<0.05
Contralateral rotations, drugs × time effect, p (three-way mixed ANOVA) ([4]; Merck 22 1 mg/kg ip): p<0.001
Contralateral rotations, drugs alone vs vehicle, p (planned contrasts on each 10-min interval) ([4]; Radiprodil 0.3 mg/kg ip): Not significant
Contralateral rotations, drugs main effect, p (three-way mixed ANOVA) ([4]; Radiprodil 0.3 mg/kg ip): p<0.01
Contralateral rotations, drugs × time effect, p (three-way mixed ANOVA) ([4]; Radiprodil 0.3 mg/kg ip): p<0.001
Ki (A3): > 1000 nM
In-vitro drug interactions with cytochrome P-450 (CYP) (cytochrome P-450 (CYP)): devoid of in-vitro risks of drug interactions
Ki (A1): > 1000 nM

C[C@@H]([C@@H](O)c1ccc(O)cc1)N1CCC(O)(c2ccccc2)CC1 [CP-101,606]
Efficacy in counteracting L-Dopa-induced dyskinesia [5]: demonstrated efficacy

CCn1c(=O)c2c(nc(/C=C/c3ccc(OC)c(OC)c3)n2C)n(CC)c1=O [Istradefylline]
Rearing counts, drugs alone vs vehicle, p (Newman-Keuls) [2, 11]: Istradefylline, p<0.01
Rearing counts, drugs main effect, p (three-way mixed ANOVA) [2, 11]: p<0.001
Rearing counts, drugs × time effect, p (three-way mixed ANOVA) [2, 11]: p<0.01
Ki (A2B): > 10000 nM
Ki (A2A): 12 nM
Effect on CYP3A-mediated drug metabolism (CYP3A): does not impair
Distance traveled, drugs alone vs vehicle, p (Newman-Keuls) [3, 11]: not all drugs when administered alone improved distance traveled; also recorded: Not significant
Distance traveled, drugs main effect, p (three-way mixed ANOVA) [3, 11]: p<0.001
Distance traveled, drugs × time effect, p (three-way mixed ANOVA) [3, 11]: Not significant
Ki (A3): 4470 nM
Inhibition of P-gp (P-gp): modest inhibition
Clinical efficacy when combined with L-Dopa (PD patients; PD patients): demonstrated significant efficacy
Clinical benefit as monotherapy (without L-Dopa) (PD patients; de-novo PD patients): did not produce statistically significant benefits
Ki (A1): 841 nM

CC(C(O)c1ccc(O)cc1)N1CCC(Cc2ccccc2)CC1 (stereo not drawn) [Ro 25–6981]
Induction of contralateral rotations as monotherapy [6]: inducing contralateral rotations

Cc1ccc(COC(=O)N2CC[C@H](CNc3ncccn3)[C@H](F)C2)cc1 [MK-0657]
Result of clinical study as monotherapy (PD patients; single clinical study): negative results

C/C(=C\C(N)C(=O)O)CP(=O)(O)O (stereo not drawn) [CGP37849]
Effect of co-administration with Theophylline on haloperidol-induced catalepsy [1]: potentiate the effects of a threshold dose of Theophylline

CC(C(O)c1ccc(O)cc1)N1CCC(Cc2ccccc2)CC1 (stereo not drawn) [Ifenprodil]
Effect on Reserpine-induced akinesia [7]: counteract Reserpine-induced akinesia at the highest dose tested

O=C(O)C1CN(CCCP(=O)(O)O)CCN1 (stereo not drawn) [CPP]
Effect on stepping deficit [8]: ameliorate the stepping deficit
